This note sets out measurements from patent US20190313942A1, “INGESTIBLE SYSTEM TO MONITOR GASTROINTESTINAL HEALTH IN SITU” (Massachusetts Institute of Technology, priority 2018, published 2019).

The subject of data set [1] is gastrointestinal bleeding. Description: Guaiac test on fecal pellets after indomethacin. The format is in vivo, C57BL/6J mice. The note with it: 10 mg/kg oral, following morning. The protocol:
For indomethacin experiments, animals were inoculated with blood sensor bacteria and fecal pellets were collected 6 hours later for luminescence analysis and CFU enumeration. Indomethacin (Sigma) solution was prepared by dissolving the compound in absolute ethanol to a concentration of 20 mg/mL. Immediately prior to mouse gavage, the indomethacin stock solution was diluted to 1.25 mg/mL in PBS and 0.2 mL of dilute indomethacin solution was administered to each animal (10 mg/kg). Preparation of indomethacin solution using this method was essential to ensure reliable and reproducible induction of gastrointestinal bleeding. The following morning, gastrointestinal bleeding was confirmed by performing a guaiac test (Hemoccult, Beckman Coulter) on fecal pellets from each animal. […] Subsequently, mice were again administered blood sensor bacteria and fecal pellets were collected 6 hours later for luminescence analysis and CFU enumeration.

The test system of the next data set is PL(HrtO). The experiment in a line: HrtR-mediated repression of PL(HrtO)-luxCDABE luminescence. It counts as cell-based, E. coli MG1655. As to conditions: co-transformation of PL(HrtO)-luxCDABE with constitutively expressing HrtR construct. The protocol:
For genetic circuit characterization, overnight cultures were diluted 1:100 in fresh LB and incubated with shaking at 37° C. for 2 hours. Cultures were removed from the incubator and 200 μL of culture was transferred to a 96-well plate containing various concentrations of inducer. The plate was returned to a shaking incubator at 37° C. Following 2 hours of incubation, luminescence was read using a BioTek Synergy H1 Hybrid Reader using a […] integration time and a sensitivity of 135. Luminescence values, measured in relative luminescence units (RLUs), were normalized by the optical density of the culture measured at 600 nm. For in vitro kinetic studies, subcultured cells were mixed with inducer in a 96-well plate and immediately placed in the plate reader set at 37° C. without shaking. Luminescence and absorbance was read at 5 minute intervals.

As to `COc1ccc2c(c1)c(CC(=O)O)c(C)n2C(=O)c1ccc(Cl)cc1` [indomethacin], in data set [1], the “guaiac test (gastrointestinal bleeding)” value is given as “guaiac positive”.

B1: HrtR: heme-regulated TetR-family transcriptional repressor from Lactococcus lactis (protein)
chain: MPKSTYFSLSDEKRKRVYDACLLEFQTHSFHEAKIMHIVKALDIPRGSFYQYFEDLKDSYYYILSQETVEIHDLFFNLLKEYPLEVALNKYKYLLLENLVNSPQYNLYKYRFLDWTYELERDWKPKGEVTVPARELDNPISQVLKSVIHNLVYRMFSENWDEQKFIETYDKEIKLLTEGLLNYVTESKK
modifications: Heme-responsive transcriptional repressor
notes: heme-regulated TetR-family transcriptional repressor from Lactococcus lactis
For the molecule B1, the reduction in luminescence in the data set with PL(HrtO) is reported as 4.4 fold.
